Experimental data published in US8765722B2 (priority 2009, dated 2014).

Test system: human hepatoma Huh-7 cell line harboring a HCV replicon
Test: microbe, parasite or virus in culture
Type: cell-based
Conditions: for EC50 / inhibition at 2 µM: Hepatitis C virus; for EC50: Huh-7; for inhibition at 2 µM: Huh-7, 72 h, read-out: % inhibition at 2 μM

Row | Compound | EC50 [µM] | inhibition at 2 µM [%] | % inhibition at 2 μM [%]
1 | COP1(=O)CCC(N(c2cc(C#CC(C)(C)C)sc2C(=O)O)C(=O)[C@H]2CC[C@H](C)CC2)CC1 (stereo partly drawn) [Compound 11, 5-(3,3-Dimethyl-but-1-ynyl)-3-[(1-methoxy-1-oxo-1 λ^5phosphinan-4-yl)-(trans-4-methyl-cyclohexanecarbonyl)-amino]-thiophene-2-carboxylic acid] | ≤ 0.5 | 99.8 | 
2 | CCOP(C)(=O)CCN(c1cc(C#CC(C)(C)C)sc1C(=O)O)C(=O)[C@H]1CC[C@H](C)CC1 (stereo partly shown) [Compound 18, 5-(3,3-Dimethyl-but-1-ynyl)-3-[[2-(ethoxy-methyl-phosphinoyl)-ethyl]-(4-methyl-cyclohexanecarbonyl)-amino]thiophene-2-carboxy-lic acid] | ≤ 0.5 | 98.8 | 
3 | CC(C)(C)C#Cc1cc(N(C(=O)[C@H]2CC[C@H](C)CC2)C2CCP(=O)(O)CC2)c(C(=O)O)s1 (stereo partly drawn) [Compound 12, 5-(3,3-Dimethyl-but-1-ynyl)-3[(1-hydroxy-1-oxo-1 λ^5phosphinan-4-yl)-(trans-4-methyl-cyclohexanecarbonyl)-amino]-thiophene-2-carboxylic acid] |  | 98.2 | 
4 | CCP(=O)(CC)OCCN(c1cc(C#CC(C)(C)C)sc1C(=O)O)C(=O)[C@H]1CC[C@H](C)CC1 [Compound 16, 3-[[2-(Diethyl-phosphinoyloxy)-ethyl]-(trans-4-methyl-cyclohexanecarbonyl)-amino]-5-(3,3-dimethyl-but-1-ynyl)-thiophene-2-carboxylic acid] | ≤ 0.5 | 99.5 | 
5 | CCOP(C)(=O)Cc1ccc(-c2cc(N(C(=O)[C@H]3CC[C@H](C)CC3)[C@H]3CC[C@H](O)CC3)c(C(=O)O)s2)cc1 (stereo partly shown) [Compound 21] |  | 79.2 | 
6 | CCOP(C)(=O)C1(OC)CCC(N(c2cc(C#CC(C)(C)C)sc2C(=O)O)C(=O)[C@H]2CC[C@H](C)CC2)CC1 (stereo partly shown) [Compound 14] | ≤ 0.5 | 99.8 | 
7 | CC(C)(C)C#Cc1cc(N(C(=O)[C@H]2CC[C@H](C(F)(F)F)CC2)[C@H]2CC[C@H](OP(C)(C)=O)CC2)c(C(=O)O)s1 [Compound 6, 5-(3,3-Dimethyl-but-1-ynyl)-3-[[trans-4-(dimethyl-phosphinoyloxy)-cyclohexyl]-(trans-4-trifluoromethyl-cyclohexanecarbonyl)-amino]-thiophene-2-carboxylic acid] |  | 93.2 | 
8 | CC(C)(C#Cc1cc(N(C(=O)[C@H]2CC[C@H](C)CC2)[C@H]2CC[C@H](O)CC2)c(C(=O)O)s1)CCOP(C)(C)=O [Compound 23] | ≤ 0.5 |  | 
9 | CCP(=O)(CC)O[C@H]1CC[C@H](N(c2cc(C#CC(C)(C)C)sc2C(=O)O)C(=O)[C@H]2CC[C@H](C)CC2)CC1 [Compound 2, 3-[[trans-4-(Diethyl-phosphinoyloxy)-cyclohexyl]-(trans-4-methyl-cyclohexanecarbonyl)-amino]-5-(3,3-dimethyl-but-1-ynyl)-thiophene-2-carboxylic acid] | ≤ 0.5 | 99.8 | 
10 | CCOP(C)(=O)C1(O)CCC(N(c2cc(C#CC(C)(C)C)sc2C(=O)O)C(=O)[C@H]2CC[C@H](C)CC2)CC1 (stereo partly drawn) [Compound 13, 5-(3,3-dimethylbut-1-ynyl)-3-((1r,4r)-N-(4-ethoxy(methyl)phosphoryl)-4-hydroxycyclohexyl)-(trans-4-methylcyclohexanecarboxamido)thiophene-2-carboxylic acid] | ≤ 0.5 | 99.8 | 
11 | CP(C)(=O)O[C@H]1CC[C@H](N(c2cc(-c3ccc(-c4cc5ncccn5n4)cc3)sc2C(=O)O)C(=O)[C@H]2CC[C@H](C)CC2)CC1 [Compound 8] | ≤ 0.5 | 99.8 | 
12 | CC(C)(C)C#Cc1cc(N(C(=O)[C@H]2CC[C@H](C)CC2)[C@H]2CC[C@H](OP(C)(C)=O)CC2)c(C(=O)O)s1 [Compound 1, 5-(3,3-Dimethyl-but-1-ynyl)-3-[[trans-4-(dimethyl-phosphinoyloxy)-cyclohexyl]-(trans-4-methyl-cyclohexanecarbonyl)-amino]-thiophene-2-carboxylic acid] | ≤ 0.5 | 99.8 | 
13 | CCOP(=O)(CCNC1CCC(N(c2cc(C#CC(C)(C)C)sc2C(=O)O)C(=O)[C@H]2CC[C@H](C)CC2)CC1)OCC (stereo partly shown) [Compound 24, 3-(1,4-N-(4-(2-(diethoxyphosphoryl)ethylamino)cyclohexyl)-4-methylcyclohexanecarboxamido)-5-(3,3-dimethylbut-1-ynyl)thiophene-2-carboxylic acid] | ≤ 0.5 |  | 
14 | CC(C)(C)C#Cc1cc(N(C(=O)[C@H]2CC[C@H](C)CC2)[C@H]2CC[C@H](OP(C)(=O)c3ccccc3)CC2)c(C(=O)O)s1 (stereo partly drawn) [Compound 3, 5-(3,3-Dimethyl-but-1-ynyl)-3-{(trans-4-methyl-cyclohexanecarbonyl)-[trans-4-(methyl-phenyl-phosphinoyloxy)-cyclohexyl]-amino}-thiophene-2-carboxylic acid] | ≤ 0.5 | 99.6 | 
15 | CP(C)(=O)O[C@H]1CC[C@H](N(c2cc(-c3ccc(NC(=O)c4cscn4)cc3)sc2C(=O)O)C(=O)[C@H]2CC[C@H](C)CC2)CC1 [Compound 7, 3-[[trans-4-(Dimethyl-phosphinoyloxy)-cyclohexyl]-(trans-4-methyl-cyclohexanecarbonyl)-amino]-5-{4-[(thiazole-4-carbonyl)-amino]-phenyl}-thiophene-2-carboxylic acid] | ≤ 0.5 | 99.8 | 
16 | CC(C)(C)C#Cc1cc(N(C(=O)[C@H]2CC[C@H](C)CC2)[C@H]2CC[C@@H](OP(C)(C)=O)CC2)c(C(=O)O)s1 [Compound 5, 5-(3,3-Dimethyl-but-1-ynyl)-3-[[cis-4-(dimethyl-phosphinoyloxy)-cyclohexyl]-(trans-4-methyl-cyclohexanecarbonyl)-amino]-thiophene-2-carboxylic acid] | ≤ 0.5 | 100 | 
17 | CC(C)(C)C#Cc1cc(N(C(=O)[C@H]2CC[C@H](C)CC2)[C@H]2CC[C@H](OP(=O)(c3ccccc3)c3ccccc3)CC2)c(C(=O)O)s1 [Compound 4, 5-(3,3-Dimethyl-but-1-ynyl)-3-[[trans-4-(diphenyl-phosphinoyloxy)-cyclohexyl]-(trans-4-methyl-cyclohexanecarbonyl)-amino]-thiophene-2-carboxylic acid] |  | 94.7 | 
18 | CC(C)(C)C#Cc1cc(N(CCP(C)(=O)O)C(=O)[C@H]2CC[C@H](C)CC2)c(C(=O)O)s1 [Compound 19, 5-(3,3-dimethyl-but-1-ynyl)-3-[[2-(hydroxy-methyl-phosphinoyl)-ethyl]-(4-methyl-cyclohexanecarbonyl)-amino]-thiophene-2-carboxylic acid] | ≤ 0.5 | 94.2 | 
19 | CC(C)(C)C#Cc1cc(N(CCOP(C)(C)=O)C(=O)[C@H]2CC[C@H](C)CC2)c(C(=O)O)s1 [Compound 15, 5-(3,3-Dimethyl-but-1-ynyl)-3-[[2-(dimethyl-phosphinoyloxy)-ethyl]-(trans-4-methyl-cyclohexanecarbonyl)-amino]-thiophene-2-carboxylic acid] | ≤ 0.5 | 98.9 | 
20 | 5-(3,3-Dimethyl-but-1-ynyl)-3-[[trans-4-(dimethyl-phosphinoyloxy)-cyclobutyl]-cis-4-methyl-cyclohexanecarbonyl)-amino]-thiophene-2-carboxylic acid [Compound 17] |  |  | 99.5
21 | CP(=O)(O)Cc1ccc(-c2cc(N(C(=O)[C@H]3CC[C@H](C)CC3)[C@H]3CC[C@H](O)CC3)c(C(=O)O)s2)cc1 [Compound 22] |  | 12.3 | 
22 | CCOP(C)(=O)Cc1ccc(-c2cc(N(C(=O)[C@H]3CC[C@H](C)CC3)C3CCC4(CC3)OCCO4)c(C(=O)O)s2)cc1 (stereo partly shown) [Compound 20, 3-[(1,4-Dioxa-spiro[4.5]dec-8-yl)-(4-methyl-cyclohexanecarbonyl)-amino]-5-[4-(ethoxy-methyl-phosphinoylmethyl)-phenyl]-thiophene-2-carboxylic acid] |  | 56.3 | 
23 | COP1(=O)CCC(NC2CCC(N(c3cc(C#CC(C)(C)C)sc3C(=O)O)C(=O)[C@H]3CC[C@H](C)CC3)CC2)CC1 (stereo partly drawn) [Compound 9, 5-(3,3-Dimethyl-but-1-ynyl)-3-[[4-(1-methoxy-1-oxo-1λ^5-phosphinan-4-ylamino)-cyclohexyl]-(trans-4-methyl-cyclohexanecarbonyl)-amino]-thiophene-2-carboxylic acid] | ≤ 0.5 | 99.9 | 
